Measured values from patent US20140193827A1 (TEVA PHARMACEUTICAL INDUSTRIES, LTD., priority 2013, published 2014).

System: GA-primed murine splenocytes
Experiment: Tolerance method for assessing process variability

## glatiramer acetate [GA]
Probe ILMN_1228937
  AVG expression CYHR1: 8.14
Probe ILMN_1229193
  AVG expression MSN: 9.736
Probe ILMN_1229197
  AVG expression OTTMUSG00000016644: 7.618
Probe ILMN_1229746
  AVG expression ECM1: 6.806
Probe ILMN_1229804
  AVG expression LTA: 8.009
Probe ILMN_1229827
  AVG expression ST7: 7.737
Probe ILMN_1229840
  AVG expression FCRLA: 9.907
Probe ILMN_1230045
  AVG expression 4933437K13RIK: 9.824
Probe ILMN_1230137
  AVG expression TPI1: 12.52
Probe ILMN_1230143
  AVG expression BATF2: 6.446
Probe ILMN_1230546
  AVG expression CLIC4: 11.15
Probe ILMN_1230605
  AVG expression GM336: 7.6587
Probe ILMN_1231204
  AVG expression LOC270152: 8.329
Probe ILMN_1231447
  AVG expression TPI1: 7.938
Probe ILMN_1231814
  AVG expression CCL5: 8.662
Probe ILMN_1232235
  AVG expression THADA: 8.652
Probe ILMN_1232621
  AVG expression ANK: 7.123
Probe ILMN_1232668
  AVG expression MAD: 7.987
Probe ILMN_1233293
  AVG expression GBP1: 11.66
Probe ILMN_1233402
  AVG expression LOC100045981: 9.335
Probe ILMN_1233474
  AVG expression IL2RA: 8.134
Probe ILMN_1233501
  AVG expression C530027B15R1K: 8.684
Probe ILMN_1233589
  AVG expression CD27: 8.296
Probe ILMN_1233987
  AVG expression 1110014O20RIK: 9.906
Probe ILMN_1233999
  AVG expression PPP3CC: 8.724
Probe ILMN_1234020
  AVG expression SCL0002007.1_97: 8.904
Probe ILMN_1234054
  AVG expression TMED8: 8.518
Probe ILMN_1234539
  AVG expression IRGM1: 11.44
Probe ILMN_1234698
  AVG expression TSPAN2: 7.426
Probe ILMN_1234706
  AVG expression IGHA_J00475$V00785_IG_HEAVY—CONSTANT_ALPHA_135: 7.221
Probe ILMN_1234746
  AVG expression AI790298: 6.873
Probe ILMN_1234973
  AVG expression 4630004K05RIK: 6.972
Probe ILMN_1235499
  AVG expression PROS1: 8.935
Probe ILMN_1235926
  AVG expression A630072M18RIK: 8.781
Probe ILMN_1236111
  AVG expression FCRLA: 11.88
Probe ILMN_1236245
  AVG expression RAB11FIP4: 6.42
Probe ILMN_1236354
  AVG expression E130302P19RIK: 7.244
Probe ILMN_1236507
  AVG expression 5830496L11RIK: 9.309
Probe ILMN_1236588
  AVG expression CAR1: 9.793
Probe ILMN_1237074
  AVG expression SLC25A19: 11.68
Probe ILMN_1237338
  AVG expression DDX25: 6.532
Probe ILMN_1237567
  AVG expression IL7R: 6.244
Probe ILMN_1237695
  AVG expression PFKP: 10.66
Probe ILMN_1237871
  AVG expression AMPD1: 6.446
Probe ILMN_1238547
  AVG expression AREG: 6.514
Probe ILMN_1238725
  AVG expression C130086J11RIK: 7.188
Probe ILMN_1239055
  AVG expression KDH: 7.064
Probe ILMN_1239346
  AVG expression KLRE1: 6.805
Probe ILMN_1239397
  AVG expression LOC100047934: 10.17
Probe ILMN_1239411
  AVG expression 6430510M02RIK: 8.536
Probe ILMN_1239472
  AVG expression CEACAM2: 6.786
Probe ILMN_1239632
  AVG expression NG23: 8.463
Probe ILMN_1239729
  AVG expression KIF1B: 7.517
Probe ILMN_1239797
  AVG expression 6030400N17RIK: 6.341
Probe ILMN_1239878
  AVG expression PRSS34: 6.278
Probe ILMN_1241171
  AVG expression ANXA3: 8.239
Probe ILMN_1241610
  AVG expression ADRB2: 8.974
Probe ILMN_1242308
  AVG expression TCF7: 8.261
Probe ILMN_1242622
  AVG expression CREM: 8.248
Probe ILMN_1242769
  AVG expression AKAP8L: 9.971
Probe ILMN_1242794
  AVG expression D630014A15RIK: 8.379
Probe ILMN_1243150
  AVG expression A130010J15RIK: 8.875
Probe ILMN_1243249
  AVG expression 2810410A03RIK: 10.13
Probe ILMN_1243621
  AVG expression A130026C10RIK: 9.03
Probe ILMN_1244343
  AVG expression B230369L08RIK: 9.9
Probe ILMN_1244516
  AVG expression RASGRP2: 6.8
Probe ILMN_1244853
  AVG expression LOC100044948: 11.36
Probe ILMN_1244866
  AVG expression GBP5: 9.012
Probe ILMN_1244874
  AVG expression SYNGR2: 10.87
Probe ILMN_1244891
  AVG expression CST7: 7.709
Probe ILMN_1245300
  AVG expression F730045P10RIK: 7.742
Probe ILMN_1245731
  AVG expression HHEX: 9.543
Probe ILMN_1245754
  AVG expression CD84: 6.93
Probe ILMN_1246543
  AVG expression SIAT7C: 8.379
Probe ILMN_1246895
  AVG expression C78339: 9.914
Probe ILMN_1247198
  AVG expression BC004728: 10.36
Probe ILMN_1247199
  AVG expression LOC100046770: 8.329
Probe ILMN_1247309
  AVG expression IL3: 9.384
Probe ILMN_1247893
  AVG expression CGEF2-PENDING: 8.11
Probe ILMN_1248028
  AVG expression EMP3: 10.05
Probe ILMN_1248413
  AVG expression FASL: 6.78
Probe ILMN_1248651
  AVG expression C330023M02RIK: 8.865
Probe ILMN_1248714
  AVG expression CD55: 8.2139
Probe ILMN_1248843
  AVG expression GATA3: 8.224
Probe ILMN_1249014
  AVG expression TBX6: 6.934
Probe ILMN_1249021
  AVG expression BCL2: 8.748
Probe ILMN_1249030
  AVG expression MPO: 8.41
